Results reported in US11446287B2, “Compounds and methods for EP300 or CBP modulation and indications therefor” (Opna Immuno-Oncology SA, priority 2019, dated 2022).

What follows are compounds tested against T1, Recombinant human CBP containing the bromodomain (CBP-BD (1043-1159)) (Homo sapiens, UniProt Q92793) (assay: CBP Alphascreen binding assay). Conditions: read-out: CREBBP (CBP) IC50.
T1 construct: Recombinant human CBP bromodomain (CBP-BD (1043-1159)); made in house; host or cells: E. coli BL21-CodonPlus (DE3), modified pET vector
T1 sequence (Q92793 1081-1197): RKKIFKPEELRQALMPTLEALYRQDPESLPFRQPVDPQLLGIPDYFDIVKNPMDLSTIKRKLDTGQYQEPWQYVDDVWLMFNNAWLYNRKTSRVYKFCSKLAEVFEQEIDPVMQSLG
Outline: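 Buffer: 50 mM HEPES pH 7.5, 50 mM NaCl, 0.01% BSA, 0.01% Triton X-100, 2 mM DTT. The signal was normalised to plate controls and fitted with a four-parameter curve to give IC50.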

Compared with COc1ccc(C(=O)O)cc1-c1c(C(F)(F)F)n([C@@H](C)c2ccccn2)c2cc(-c3c(C)noc3C)cnc12 [P-0239, (S)-3-(6-(3,5-dimethylisoxazol-4-yl)-1-(1-(pyridin-2-yl)ethyl)-2-(trifluoromethyl)-1H-pyrrolo[3,2-b]pyridin-3-yl)-4-methoxybenzoic acid], Cc1noc(C)c1-c1cnc2c(-c3cc(F)cc(C(=O)O)c3)c(C(F)(F)F)n([C@@H](C)c3ccccn3)c2c1 [P-0240, (S)-3-(6-(3,5-dimethylisoxazol-4-yl)-1-(1-(pyridin-2-yl)ethyl)-2-(trifluoromethyl)-1H-pyrrolo[3,2-b]pyridin-3-yl)-5-fluorobenzoic acid] is lower in IC50: 1000 to 8000 nM for the first, 0.1 to 1000 nM for the second. The second is the more potent here.

First: Cc1noc(C)c1-c1cnc2c(-c3cc(Cl)cc(C(=O)O)c3)c(C(F)(F)F)n([C@@H](C)c3ccccn3)c2c1 [P-0241, (S)-3-chloro-5-(6-(3,5-dimethylisoxazol-4-yl)-1-(1-(pyridin-2-yl)ethyl)-2-(trifluoromethyl)-1H-pyrrolo[3,2-b]pyridin-3-yl)benzoic acid]
Second: Cc1noc(C)c1-c1cnc2c(-c3ccc(C(=O)O)c(F)c3)c(C(F)(F)F)n([C@@H](C)c3ccccn3)c2c1 [P-0242, (S)-4-(6-(3,5-dimethylisoxazol-4-yl)-1-(1-(pyridin-2-yl)ethyl)-2-(trifluoromethyl)-1H-pyrrolo[3,2-b]pyridin-3-yl)-2-fluorobenzoic acid]
The IC50 of the first is lower: 0.1 to 1000 nM for the first, 1000 to 8000 nM for the second. The first is the more potent here.
